In patent publication US10689399B2, “Substituted 3,4,5,6,8,10,14,14a-octahydro-2h-2,6-methanopyrido[1′,2′:4,5]pyrazino[2,1-b][1,3]oxazocines and methods for treating viral infections” (Gilead Sciences, Inc., priority 2012, dated 2020):

test system: HIV-IIIb; test: Antiviral assay in MT4 cells; type: cell-based; details: Human immunodeficiency virus 1, IIIB, MT4, 120 h, MT4 cells infected with HIV-IIIb, 5 days, CellTiter-Glo; read-out: EC50 nM in MT-4
Protocol: For the antiviral assay utilizing MT4 cells, 0.4 μL of 189X test concentration of 3-fold serially diluted compound in DMSO was added to 40 μL of cell growth medium (RPMI 1640, 10% FBS, 1% penicilline/Streptomycine, 1% L-Glutamine, 1% HEPES) in each well of 384-well assay plates (10 concentrations) in quidruplicate.
1 mL aliquots of 2×10^6 MT4 cells are pre-infected for 1 and 3 hours respectively at 37° C. with 25 μL (MT4) or of either cell growth medium (mock-infected) or a fresh 1:250 dilution of an HIV-IIIb concentrated ABI stock (0.004 m.o.i. for MT4 cells). Infected and uninfected cells are diluted in cell growth medium and 35 μL of 2000 (for MT4) cells is added to each well of the assay plates.
Assay plates were then incubated in a 37° C. incubator. After 5 days of incubation, 25 μL of 2× concentrated CellTiter-Glo™ Reagent (catalog # G7573, Promega Biosciences, Inc., Madison, Wis.) was added to each well of the assay plate. Cell lysis was carried out by incubating at room temperature for 2-3 minutes, and then chemiluminescence was read using the Envision reader (PerkinElmer).

Question: How did the EC50 turn out when O=C(NCc1ccc(F)c(F)c1F)c1cn2c(c(O)c1=O)C(=O)N1[C@@H]3CC[C@@H](C3)O[C@H]1C2 [Compound 44, (13aS)-8-hydroxy-7,9-dioxo-N-(2,3,4-trifluorobenzyl)-2,3,4,5,7,9,13,13a-octahydro-2,5-methanopyrido[1′,2′:4,5]pyrazino[2,1-b][1,3]oxazepine-10-carboxamide] was run?
Answer: 2.3 nM

Question: For O=C(NCc1c(F)cc(F)cc1F)c1cn2c(c(O)c1=O)C(=O)N1[C@@H]3CC[C@@H](C3)O[C@H]1C2 [Compound 45, (13aS)-8-hydroxy-7,9-dioxo-N-(2,4,6-trifluorobenzyl)-2,3,4,5,7,9,13,13a-octahydro-2,5-methanopyrido[1′,2′:4,5]pyrazino[2,1-b][1,3]oxazepine-10-carboxamide], which EC50 is on record?
Answer: 2.4 nM

Question: Which EC50 does the source give for O=C(NCc1c(F)cccc1F)c1cn2c(c(O)c1=O)C(=O)N1[C@@H]3CC[C@@H](C3)O[C@H]1C2 [Compound 46, (13aS)—N-(2,6-difluorobenzyl)-8-hydroxy-7,9-dioxo-2,3,4,5,7,9,13,13a-octahydro-2,5-methanopyrido[1′,2′:4,5]pyrazino[2,1-b][1,3]oxazepine-10-carboxamide] here?
Answer: 2.6 nM

Question: For O=C(NCc1ncccc1C(F)(F)F)c1cn2c(c(O)c1=O)C(=O)N1[C@@H]3CC[C@@H](C3)O[C@H]1C2 [Compound 49, (2 S,5R,13aS)-8-hydroxy-7,9-dioxo-N-((3-(trifluoromethyl)pyridin-2-yl)methyl)-2,3,4,5,7,9,13,13a-octahydro-2,5-methanopyrido[1%2′: 4,5]pyrazino[2,1-b][1,3]oxazepine-10-carboxamide], which EC50 is on record?
Answer: 33.3 nM

Question: How did the EC50 turn out when O=C(NCc1ccc(F)cc1OC1CC1)c1cn2c(c(O)c1=O)C(=O)N1[C@@H]3CC[C@@H](C3)O[C@H]1C2 [Compound 52, (2S,5R,13aS)—N-(2-cyclopropoxy-4-fluorobenzyl)-8-hydroxy-7,9-dioxo-2,3,4,5,7,9,13,13a-octahydro-2,5-methanopyrido[1%2′: 4,5]pyrazino[2,1-b][1,3]oxazepine-10-carboxamide] was run?
Answer: 15 nM

Question: How did the EC50 turn out when O=C(NCc1ccc(F)cc1OC1CC1)c1cn2c(c(O)c1=O)C(=O)N1[C@H]3CC[C@H](C3)O[C@@H]1C2 [Compound 53, (2R,5S,13aR)—N-(2-cyclopropoxy-4-fluorobenzyl)-8-hydroxy-7,9-dioxo-2,3,4,5,7,9,13,13a-octahydro-2,5-methanopyrido[1%2′: 4,5]pyrazino[2,1-b][1,3]oxazepine-10-carboxamide] was run?
Answer: 14.3 nM

Question: For O=C(N[C@@H](c1ccc(F)cc1F)C(F)(F)F)c1cn2c(c(O)c1=O)C(=O)N1C(C2)O[C@@H]2CC[C@H]1C2 (stereo partly drawn) [Compound 54, (2R,5S)—N—((S)-1-(2,4-difluorophenyl)-2,2,2-trifluoroethyl)-8-hydroxy-7,9-dioxo-2,3,4,5,7,9,13,13a-octahydro-2,5-methanopyrido[1′,2′:4,5]pyrazino[2,1-b][1,3]oxazepine-10-carboxamide], which EC50 is on record?
Answer: 15.6 nM

Question: For O=C(NCc1c(F)cc(F)cc1F)c1cn2c(c(O)c1=O)C(=O)N1[C@H]3CC[C@H](C3)[C@H]1C2 [Compound 55, (1R,4S,12aS)-7-hydroxy-6,8-dioxo-N-(2,4,6-trifluorobenzyl)-1,2,3,4,6,8,12,12a-octahydro-1,4-methanodipyrido[1,2-a:1′,2′-d]pyrazine-9-carboxamide], which EC50 is on record?
Answer: 1.5 nM

Question: How did the EC50 turn out when O=C(NCc1c(F)cc(F)cc1F)c1cn2c(c(O)c1=O)C(=O)N1[C@@H]3C[C@H]([C@@H]1C2)C(F)(F)C3 [Compound 57, (1R,4R,12aR)-2,2-difluoro-7-hydroxy-6,8-dioxo-N-(2,4,6-trifluorobenzyl)-1,2,3,4,6,8,12,12a-octahydro-1,4-methanodipyrido[1,2-a:1′,2′-d]pyrazine-9-carboxamide] was run?
Answer: 2.3 nM

Question: Which EC50 does the source give for O=C(NCc1ccc(F)c(Cl)c1F)c1cn2c(c(O)c1=O)C(=O)N1[C@@H]3C[C@H]([C@@H]1C2)C(F)(F)C3 [Compound 58, (1R,4R,12aR)—N-(3-chloro-2,4-difluorobenzyl)-2,2-difluoro-7-hydroxy-6,8-dioxo-1,2,3,4,6,8,12,12a-octahydro-1,4-methanodipyrido[1,2-a:1′,2′-d]pyrazine-9-carboxamide] here?
Answer: 1.5 nM

Question: With O=C(NCc1c(F)cc(F)cc1F)c1cn2c(c(O)c1=O)C(=O)N1[C@@H]3C[C@@H]([C@H](F)C3)[C@@H]1C2 [Compound 59, (1R,2R,4R,12aR)-2-fluoro-7-hydroxy-6,8-dioxo-N-(2,4,6-trifluorobenzyl)-1,2,3,4,6,8,12,12a-octahydro-1,4-methanodipyrido[1,2-a:1′,2′-d]pyrazine-9-carboxamide] as the molecule, how does the EC50 read?
Answer: 3.1 nM

Question: O=C(NCc1cccc(Cl)c1Cl)c1cn2c(c(O)c1=O)C(=O)N1[C@H]3CC[C@H](C3)[C@@H]1C2 [Compound 60, (1R,4S,12aR)—N-(2,3-dichlorobenzyl)-7-hydroxy-6,8-dioxo-1,2,3,4,6,8,12,12a-octahydro-1,4-methanodipyrido[1,2-a:1′,2′-d]pyrazine-9-carboxamide] was tested. Which EC50 did it give?
Answer: 2.1 nM

Question: How did the EC50 turn out when O=C(NCc1ccc(F)c(Cl)c1F)c1cn2c(c(O)c1=O)C(=O)N1[C@H]3CC[C@H](C3)[C@H]1C2 [Compound 61, (1R,4S,12aS)—N-(3-chloro-2,4-difluorobenzyl)-7-hydroxy-6,8-dioxo-1,2,3,4,6,8,12,12a-octahydro-1,4-methanodipyrido[1,2-a:1′,2′-d]pyrazine-9-carboxamide] was run?
Answer: 1.8 nM

Question: How did the EC50 turn out when O=C(NCc1ccc(F)cc1C(F)(F)F)c1cn2c(c(O)c1=O)C(=O)N1[C@H]3CC[C@H](C3)O[C@@H]1C2 [Compound 62, (2R,5S,13aR)—N-(4-fluoro-2-(trifluoromethyl)benzyl)-8-hydroxy-7,9-dioxo-2,3,4,5,7,9,13,13a-octahydro-2,5-methanopyrido[1′,2′:4,5]pyrazino[2,1-b][1,3]oxazepine-10-carboxamide] was run?
Answer: 9.2 nM

Question: How did the EC50 turn out when O=C(NCc1cc(F)c(F)cc1F)c1cn2c(c(O)c1=O)C(=O)N1[C@H]3CC[C@H](C3)O[C@@H]1C2 [Compound 64, (2R,5S,13aR)-8-hydroxy-7,9-dioxo-N-(2,4,5-trifluorobenzyl)-2,3,4,5,7,9,13,13a-octahydro-2,5-methanopyrido[1′,2′:4,5]pyrazino[2,1-b][1,3]oxazepine-10-carboxamide] was run?
Answer: 3.5 nM

Question: For O=C(NCc1cc(Cl)c(F)cc1F)c1cn2c(c(O)c1=O)C(=O)N1[C@H]3CC[C@H](C3)O[C@@H]1C2 [Compound 65, (2R,5 S,13aR)—N-(5-chloro-2,4-difluorobenzyl)-8-hydroxy-7,9-dioxo-2,3,4,5,7,9,13,13a-octahydro-2,5-methanopyrido[1′,2′: 4,5]pyrazino[2,1-b][1,3]oxazepine-10-carboxamide], which EC50 is on record?
Answer: 2.4 nM

Question: Which EC50 does the source give for O=C(NCc1ccc(F)c(F)c1)c1cn2c(c(O)c1=O)C(=O)N1[C@H]3CC[C@H](C3)[C@@H]1C2 [Compound 66, (1R,4S,12aR)—N-(3,4-difluorobenzyl)-7-hydroxy-6,8-dioxo-1,2,3,4,6,8,12,12a-octahydro-1,4-methanodipyrido[1,2-a:1′,2′-d]pyrazine-9-carboxamide] here?
Answer: 9.4 nM

Question: O=C(NCc1ccc(F)cc1C(F)(F)F)c1cn2c(c(O)c1=O)C(=O)N1[C@H]3CC[C@H](C3)[C@@H]1C2 [Compound 67, (1R,4S,12aR)—N-(4-fluoro-2-(trifluoromethyl)benzyl)-7-hydroxy-6,8-dioxo-1,2,3,4,6,8,12,12a-octahydro-1,4-methanodipyrido[1,2-a:1′,2′-d]pyrazine-9-carboxamide] was tested. Which EC50 did it give?
Answer: 10.7 nM

Question: How did the EC50 turn out when O=C(NCc1ccc(F)cc1Cl)c1cn2c(c(O)c1=O)C(=O)N1[C@H]3CC[C@H](C3)[C@@H]1C2 [Compound 68, (1R,4S,12aR)—N-(2-chloro-4-fluorobenzyl)-7-hydroxy-6,8-dioxo-1,2,3,4,6,8,12,12a-octahydro-1,4-methanodipyrido[1,2-a:1′,2′-d]pyrazine-9-carboxamide] was run?
Answer: 2.7 nM

Question: For O=C(NCc1ccc(F)c(Cl)c1F)c1cn2c(c(O)c1=O)C(=O)N1[C@H]3CC[C@H](C3)[C@@H]1C2 [Compound 69, (1R,4S,12aR)—N-(3-chloro-2,4-difluorobenzyl)-7-hydroxy-6,8-dioxo-1,2,3,4,6,8,12,12a-octahydro-1,4-methanodipyrido[1,2-a:1′,2′-d]pyrazine-9-carboxamide], which EC50 is on record?
Answer: 1.9 nM

Question: Cc1cccc(CNC(=O)c2cn3c(c(O)c2=O)C(=O)N2[C@H]4CC[C@H](C4)[C@@H]2C3)c1F [Compound 70, (1R,4S,12aR)—N-(2-fluoro-3-methylbenzyl)-7-hydroxy-6,8-dioxo-1,2,3,4,6,8,12,12a-octahydro-1,4-methanodipyrido[1,2-a:1′,2′-d]pyrazine-9-carboxamide] was tested. Which EC50 did it give?
Answer: 5.1 nM

same assay, conditions: Human immunodeficiency virus 1, IIIB, MT4, 120 h, read-out: EC50 nM in MT-4, MT4 cells infected with HIV-IIIb, 5 days, CellTiter-Glo

Question: For O=C(NCc1ccc(F)cc1F)c1cn2c(c(O)c1=O)C(=O)N1[C@H]3CC[C@H](C3)[C@@H]1C2 [Compound 47, (1R,4S,12aR)—N-(2,4-difluorobenzyl)-7-hydroxy-6,8-dioxo-1,2,3,4,6,8,12,12a-octahydro-1,4-methanodipyrido[1,2-a:1′,2′-d]pyrazine-9-carboxamide], which EC50 is on record?
Answer: 1.9 nM

Question: Which EC50 does the source give for O=C(NCc1ccc(F)cc1Cl)c1cn2c(c(O)c1=O)C(=O)N1[C@H]3CC[C@H](C3)O[C@@H]1C2 [Compound 63, (2R,5S,13aR)—N-(2-chloro-4-fluorobenzyl)-8-hydroxy-7,9-dioxo-2,3,4,5,7,9,13,13a-octahydro-2,5-methanopyrido[1′,2′:4,5]pyrazino[2,1-b][1,3]oxazepine-10-carboxamide] here?
Answer: 2.5 nM
